# Data published in patent publication US20240009331A1, “UROKINASE PLASMINOGEN ACTIVATOR RECEPTOR TARGETED RADIOLABELED PEPTIDE CONJUGATES” (CURASIGHT A/S, priority 2020, published 2024).
# Biological target: uPAR H47C-N259C
# Test: SPR inhibition of uPAR binding to immobilized uPA (uPAR H47C-N259C)
# Set-up: species or system human
# Details: inhibition of uPAR binding to immobilized prouPA S356A
# Protocol: Covalent immobilization of purified human prouPA^S356A was accomplished by injecting 12.5 μg/ml protein dissolved in 10 mM sodium acetate (pH 5.0) over a CM5 chip that had been pre-activated with NHS/EDC (N-ethyl-N′[3-[…])propyl]-carbodiimide), aiming at a surface density of >5000 resonance units (RU) corresponding to 100 fmols/mm^2. After coupling the sensor-chip was deactivated with 1 M ethanolamine. Binding of purified human uPAR as analyte was measured from 4 nM to 0.25 nM at using 10 mM HEPES, 150 mM NaCl, 3 mM EDTA (pH 7.4) containing (v/v) surfactant P20 as running buffer at a flow rate of […]. In between cycles the sensor-chip was regenerated by two consecutive 10-μl injections of 0.1 M acetic acid/HCI (pH 2.5) in 0.5 M NaCl. The inhibition of 3-fold dilutions of the compounds in question was measured for 4 nM uPAR with identical running conditions. All experiments were performed on a BiacoreT200 instrument.
# For each inhibition peptide inhibition profile of uPAR binding to immobilized uPA there has been run a preceding standard curve and all calculations are based on the that standard curve.
smiles,measurement,value
"CC(C)C[C@H](NC(=O)[C@H](Cc1ccc(O)cc1)NC(=O)[C@@H](CCCNC(=N)N)NC(=O)[C@@H](CO)NC(=O)[C@H](Cc1ccccc1)NC(=O)[C@H](CC1CCCCC1)NC(=O)[C@@H](N)CC(=O)O)C(=O)N[C@@H](Cc1c[nH]c2ccccc12)C(=O)N[C@@H](CO)C(=O)O [AE105, DChaFsrYLWS-OH]",IC50,4.5 ± 1.5 µM
